Reference: patent publication US11958871B2, “Inhibitors of bacterial glutaminyl cyclases for use in the treatment of periodontal and related diseases” (FRAUNHOFER-GESELLSCHAFT ZUR FÖRDERUNG DER ANGEWANDTEN …, priority 2018, dated 2024)
Where two headings read alike, the source gives them in different places. Each block holds one compound with its values, some of them ahead of it.

Tests used:
Assay type in all cases: biochemical
PgQC = PgQC (Porphyromonas gingivalis, UniProt Q7MT37); assay: Inhibitor assay for bacterial glutaminyl cyclase activity (fluorometric, H-Gln-AMC), PgQC
Chain of PgQC (Q7MT37 22-333 limits assumed): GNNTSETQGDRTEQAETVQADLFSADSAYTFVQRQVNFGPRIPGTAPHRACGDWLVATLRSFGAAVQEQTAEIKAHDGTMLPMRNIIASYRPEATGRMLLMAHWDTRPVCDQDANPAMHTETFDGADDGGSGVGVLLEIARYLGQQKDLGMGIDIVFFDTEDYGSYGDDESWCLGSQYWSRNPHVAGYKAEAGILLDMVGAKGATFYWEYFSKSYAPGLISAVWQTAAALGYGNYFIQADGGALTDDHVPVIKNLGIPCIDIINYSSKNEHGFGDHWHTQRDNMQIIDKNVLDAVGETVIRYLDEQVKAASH
Procedure: (§1) QC activity was evaluated using H-Gln-AMC as the substrate (as previously described in Schilling et al., 2002).
(§2) The assay consists of varying concentration of the fluorogenic substrate and 0.5 U pyroglutaminyl aminopeptidase in 50 mM Tris-HCl, 50 mM NaCl at pH 8.0. After 10 minute incubation time at 30° C. reaction was initiated by addition of bacQC to a final volume of 125 μl reaction mixture. The excitation/emission wavelength was 380/460 nm. bacQC activity was determined from a standard curve of the fluorophore AMC under assay conditions. All determinations were carried out in 96 well microtiter plates (Fisher Scientific) at 30° C. using the FluoStar Optima (BMG Labtech).
(§3) For inhibitor testing, the sample composition was the same as described above, except for the addition of the putative inhibitory compound. […] Inhibitory constants were determined using different concentration of H-Gln-AMC varying from ¼ Km-2 Km. Final concentration of bacterial QC was in a range between 25 nM-50 nM.
(∘) represents reaction without inhibitor. Determinations were carried out in 50 mM Tris-HCl, 50 mM NaCl pH 8.0 and 1% (v/v) DMSO at 30° C.
(§4) The following compounds were synthesized as described in the Description of synthetic methods below. Average Ki values for the inhibition of PgQC (isolated and purified as described above), TfQC, PiQC and hQC were measured using the above inhibitor assay and are shown in. Ki refers to the average Ki values measured as described above, and Std(Ki) refers to the standard deviation of Ki.

TfQC = TfQC (Tannerella forsythia, UniProt G8UMP8); assay: Inhibitor assay for bacterial glutaminyl cyclase activity (fluorometric, H-Gln-AMC), TfQC
Chain of TfQC (G8UMP8 20-333 limits assumed): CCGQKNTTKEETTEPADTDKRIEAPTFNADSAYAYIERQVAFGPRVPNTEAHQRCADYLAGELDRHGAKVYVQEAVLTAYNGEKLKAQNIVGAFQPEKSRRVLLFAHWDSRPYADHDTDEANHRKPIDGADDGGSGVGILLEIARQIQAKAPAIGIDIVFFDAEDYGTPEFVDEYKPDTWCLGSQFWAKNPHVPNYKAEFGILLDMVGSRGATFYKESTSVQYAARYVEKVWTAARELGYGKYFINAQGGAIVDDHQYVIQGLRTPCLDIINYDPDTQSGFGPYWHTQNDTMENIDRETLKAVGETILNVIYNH
Procedure: as §1, §2, §3, §4

hQC = hQC (Homo sapiens (Human), UniProt Q16769); assay: Inhibitor assay for glutaminyl cyclase activity (fluorometric, H-Gln-AMC), hQC
Chain of hQC (Q16769 29-361): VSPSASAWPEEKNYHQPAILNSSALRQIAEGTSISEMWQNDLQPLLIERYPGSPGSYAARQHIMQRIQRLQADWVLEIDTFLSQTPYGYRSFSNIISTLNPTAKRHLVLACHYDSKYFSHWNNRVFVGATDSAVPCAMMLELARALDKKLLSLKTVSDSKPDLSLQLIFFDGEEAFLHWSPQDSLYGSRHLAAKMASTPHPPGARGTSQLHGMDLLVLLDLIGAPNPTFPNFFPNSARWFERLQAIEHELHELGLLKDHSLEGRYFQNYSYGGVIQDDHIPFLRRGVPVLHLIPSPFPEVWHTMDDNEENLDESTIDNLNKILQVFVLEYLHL
Procedure: as §1, §2, §3, §4

[1] = system: bacterial glutaminyl cyclases; assay: Inhibition of bacterial glutaminyl cyclases, summary statements
Procedure: as §3, §4

[2] = average Ki ± Std(Ki), read-out: PgQC Ki
[3] = average Ki ± Std(Ki), read-out: TfQC Ki
[4] = average Ki ± Std(Ki), read-out: hQC Ki

Compound: COc1cc(F)c(CNc2cnc3[nH]cnc3c2)c(F)c1 [Example 22, N-[(2,6-Difluoro-4-methoxy-phenyl)methyl]-3H-imidazo[4,5-b]pyridin-6-amine]
Ki (PgQC; [2]): 30 ± 1 nM

Compound: c1ccc(Oc2cccc(CNc3cnc4[nH]cnc4c3)c2)cc1 [Example 19, N-[(3-Phenoxyphenyl)methyl]-3H-imidazo[4,5-b]pyridin-6-amine]
Ki (PgQC; [2]): 15 ± 0.1 nM

Compound: c1ccc(-c2ccc(CNc3cnc4[nH]cnc4c3)cc2)nc1 [Example 25, N-[[4-(2-Pyridyl)phenyl]methyl]-3H-imidazo[4,5-b]pyridin-6-amine]
Ki (PgQC; [2]): 38 ± 3 nM

Compound: c1ccc(-c2ccc(CNc3cnc4[nH]cnc4c3)cc2)cc1 [Example 21, N-[(4-Biphenyl)methyl]-3H-imidazo[4,5-b]pyridin-6-amine]
Ki (PgQC; [2]): 19 ± 1 nM

Compound: c1ccc(CNc2ccc3nc[nH]c3n2)cc1 [Example 1, N-Benzylimidazo[4,5-b]pyridin-5-amine]
Ki (PgQC; [2]): 1940 ± 318 nM
Ki (PgQC; read-out: Ki, PgQC (Table 5)): 1950 nM
Ki (TfQC; [3]): 8.26 ± 0.361 µM
Ki (TfQC; read-out: Ki, TfQC (Table 5)): 8.3 µM
Ki (hQC; [4]): 8.8 ± 0.127 µM
Ki (hQC; read-out: Ki, hQC (Table 5)): 8.8 µM
inhibitory activity against bacterial glutaminyl cyclases (in words) [1]: significant bacQC inhibitory activity and selectivity for PgQC over hQC

Compound: c1ccc(COc2ccc(CNc3cnc4[nH]cnc4c3)cc2)cc1 [Example 20, N-[(4-Benzyloxyphenyl)methyl]-3H-imidazo[4,5-b]pyridin-6-amine]
Ki (PgQC; [2]): 42 ± 4 nM

Ki (PgQC; 50 mM Tris-HCl, 50 mM NaCl pH 8.0, 1% (v/v) DMSO, 30° C., read-out: Ki, inhibition of the conversion of H-Gln-AMC by PgQC): 104 nM
Compound: O=C(c1cc(Cl)cc(Cl)c1)N1CCc2[nH]cnc2C1 [MWT-S-00431, (3,5-dichlorophenyl-1,4,6,7-tetrahydro-5H-imidazo[4,5-c]pyridin-5-yl)methanone, reference compound]

Compound: c1nc2cc(NCc3ccc(N4CCOCC4)cc3)cnc2[nH]1 [Example 27, N-[(4-morpholinophenyl)methyl]-3H-imidazo[4,5-b]pyridin-6-amine]
Ki (PgQC; [2]): 60 ± 2 nM

Compound: N=C(N)NCCOc1ccc(CNc2cnc3[nH]cnc3c2)cc1 [Example 17, 1-(2-(4-((Imidazo[4,5-b]pyridin-6-ylamino)methyl)-phenoxy)ethyl)guanidine]
Ki (PgQC; [2]): 14 ± 0.1 nM
Ki (TfQC; [3]): 0.123 ± 0.016 µM
Ki (hQC; [4]): 0.455 ± 0.014 µM

Compound: CC(C)Oc1ccc(CNc2cnc3[nH]cnc3c2)cc1 [Example 18, N-[(4-Isopropoxyphenyl)methyl]-3H-imidazo[4,5-b]pyridin-6-amine]
Ki (PgQC; [2]): 86 ± 5 nM

Compound: FC1(F)Oc2ccc(CNc3cnc4[nH]cnc4c3)cc2O1 [Example 24, N-[(2,2-Difluoro-1,3-benzodioxol-5-yl)methyl]-3H-imidazo-[4,5-b]pyridin-6-amine]
Ki (PgQC; [2]): 67 ± 1 nM

Compound: COc1cc(CNc2cnc3[nH]cnc3c2)cc2c1OCO2 [Example 23, N-[(7-Methoxy-1,3-benzodioxol-5-yl)methyl]-3H-imidazo-[4,5-b]pyridin-6-amine]
Ki (PgQC; [2]): 65 ± 13 nM

Compound: c1nc2cc(NCc3ccc(OCCN4CCOCC4)cc3)cnc2[nH]1 [Example 26, N-[[4-(2-Morpholinoethoxy)phenyl]methyl]-3H-imidazo[4,5-b]pyridin-6-amine]
Ki (PgQC; [2]): 33 ± 1 nM
